From US20110218506A1, “AMOROLFINE PATCH FOR THE TREATMENT OF ONYCHOMYCOSIS” (Galderma Research & Development, priority 2004, published 2011)
Where a name gives a salt, the structure may show the parent alone.

Experiment: Solubility in formulation solvents
Assay type: physicochemical

| solubility in ethanol (ethanol) | solubility in ethyl acetate (ethyl acetate) | Structure (SMILES) |
| --- | --- | --- |
| particularly soluble | – | CCC(C)(C)c1ccc(CC(C)CN2C[C@@H](C)O[C@@H](C)C2)cc1 (stereo partly drawn) [amorolfine HCl, hydrochloride of the cis-4-[3-[4-(1,1-dimethyl-propyl)phenyl]-2-methylpropyl]-2,6-dimethyl-morpholine] |
| – | highly soluble | O=C1CCCCCCCCCCCCCCO1 [Exaltolide] |
